Article PMC11726634, “Probing the Histamine H1 Receptor Binding Site to Explore Ligand Binding Kinetics” (Journal of Medicinal Chemistry, 2024)
Counter-ions that a name gives are not always drawn. Like-named read-outs stand apart in the source and are kept apart here.

Tests used:
human H1R [1] = target: T1, human H1R (Homo sapiens, UniProt P35367); experiment: [3H]-mepyramine competition binding (radioligand displacement, 4 h) on HEK293T cell homogenates; conditions: for pKi: [3H]mepyramine displacement curves after 4 h incubation, HEK293T cell homogenate expressing H1R, 25 °C, mean and SEM, N ≥ 3
T1 construct: expressed in transfected cells; host or cells: HEK293T cells, transient transfection with pcDEF3, used as cell homogenate
T1 sequence (P35367 whole entry): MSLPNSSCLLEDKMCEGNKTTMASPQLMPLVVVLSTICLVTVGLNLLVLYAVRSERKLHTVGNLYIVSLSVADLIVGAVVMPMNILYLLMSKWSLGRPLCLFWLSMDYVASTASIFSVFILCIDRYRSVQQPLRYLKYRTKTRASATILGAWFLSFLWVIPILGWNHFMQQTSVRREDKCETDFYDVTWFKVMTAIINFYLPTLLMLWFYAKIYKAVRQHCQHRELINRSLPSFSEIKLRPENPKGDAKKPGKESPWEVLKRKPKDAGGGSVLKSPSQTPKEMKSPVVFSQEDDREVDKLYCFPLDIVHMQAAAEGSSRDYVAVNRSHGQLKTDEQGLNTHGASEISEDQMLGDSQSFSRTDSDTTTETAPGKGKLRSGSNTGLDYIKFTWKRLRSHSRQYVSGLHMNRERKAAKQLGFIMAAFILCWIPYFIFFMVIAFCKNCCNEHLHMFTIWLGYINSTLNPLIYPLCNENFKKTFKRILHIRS
Protocol: Protein content of membrane homogenates was determined using a BCA protein assay. […] Membrane preparation, termination of the binding reaction and quantifying radioactivity as described here, were performed for all binding experiments.Total binding and nonspecific binding (i.e., in the presence of mianserin) was analyzed by nonlinear regression using eqs 1 (nonspecific binding) and 2 (total binding).
These values were converted to Ki values using the Cheng–Prusoff equation.[24]

human H1R [2] = target: T1, human H1R; experiment: Competition association binding with [3H]-mepyramine (Motulsky and Mahan model); conditions: for KE (kinetic efficiency = RT/N heavy atoms): RT divided by number of heavy atoms; for pKD,calc: calculated from kon and koff of individual experiments
Protocol: Binding in the presence of mianserin was assumed to be the baseline (i.e., t = 0 min). Binding over time was baseline corrected and then analyzed by nonlinear regression using the Motulsky and Mahan model[25] (eq 5). This model assumes that both the radioligand and the unlabeled ligand bind competitively to the same binding site according to a one-step binding mechanism.

[3] = competitive binding of [3H]mepyramine over time, unlabeled ligand at ±10 times Ki, 25 °C, mean and SEM, N ≥ 3
[4] = competitive binding of [3H]mepyramine over time, unlabeled ligand at ±10 times Ki, 25 °C, mean and SEM, N ≥ 3, read-out: koff (converted)
[5] = compared with fragment 1 (RT 2.0 min)

| pKi (human H1R [1]) | KE (kinetic efficiency = RT/N heavy atoms) (human H1R [2]) | pKD,calc (human H1R [2]; mean and SEM, N ≥ 3) | koff (human H1R [2]; [3]) [s⁻¹] | kon (human H1R [2]; [3]) | koff (human H1R [2]; [4]) [s⁻¹] | kon (human H1R [2]; read-out: kon (converted)) [M⁻¹ s⁻¹] | increase in RT relative to 1 (human H1R [2]; [5]) [fold] | lower binding affinity relative to 1 (human H1R [1]; compared with 1) [fold] | increase in RT compared to first-generation analog (human H1R [2]) [fold] | Compound | increase in RT relative to 1 (human H1R [2]) [fold] | decrease of association rate constant (kon) relative to 1 (human H1R [2]; compared with 1) [fold] | koff (human H1R [2]; read-out: koff (converted)) [s⁻¹] |
| --- | --- | --- | --- | --- | --- | --- | --- | --- | --- | --- | --- | --- | --- |
| 7.4 ± 0.1 | 0.48 | 7.4 ± 0.0 | 0.00138 ± 6.7e-05 | 2.08 ± 0.10 10^6· M^−1·min^−1 |  |  |  |  |  | 2-(3-Benzyl-2-((1-methylpiperidin-4-yl)oxy)phenyl)acetic Acid [3b] |  |  |  |
| <5 | 0.05 | 4.8 ± 0.1 |  |  | 0.0167 | 1000 |  |  |  | CN1CCC(Oc2cc(C(=O)O)ccc2Cc2ccccc2)CC1 [2a, 4-Benzyl-3-((1-methylpiperidin-4-yl)oxy)benzoic Acid] |  |  |  |
| 6.9 ± 0.1 | 0.24 | 6.8 ± 0.2 |  |  | 0.00283 | 21700 |  |  |  | CN1CCC(Oc2cc(CC(=O)O)ccc2Cc2ccccc2)CC1 [2b, 2-(4-Benzyl-3-((1-methylpiperidin-4-yl)oxy)phenyl)acetic Acid] |  |  |  |
| 6.5 ± 0.1 | 0.69 | 7.0 ± 0.0 |  |  | 0.000917 | 10300 | 9 |  |  | CN1CCC(Oc2cc(/C=C/C(=O)O)ccc2Cc2ccccc2)CC1 [2c, (E)-3-(4-Benzyl-3-((1-methylpiperidin-4-yl)oxy)phenyl)acrylic Acid] |  |  |  |
| 6.2 ± 0.1 | 0.18 | 6.3 ± 0.0 |  |  | 0.004 | 8330 |  |  |  | CN1CCC(Oc2c(Cc3ccccc3)cccc2C(=O)O)CC1 [3a, 3-Benzyl-2-((1-methylpiperidin-4-yl)oxy)benzoic Acid] |  |  |  |
| 6.6 ± 0.1 | 0.12 | 6.7 ± 0.0 |  |  |  | 26700 |  |  |  | CN1CCC(Oc2c(/C=C/C(=O)O)cccc2Cc2ccccc2)CC1 [3c, (E)-3-(3-Benzyl-2-((1-methylpiperidin-4-yl)oxy)phenyl)acrylic Acid] |  |  |  |
| 7.4 ± 0.0 | 0.06 | 7.6 ± 0.1 |  |  | 0.0122 | 450000 |  | 10 |  | CN1CCC(Oc2c(CO)cccc2Cc2ccccc2)CC1 [3d, (3-Benzyl-2-((1-methylpiperidin-4-yl)oxy)phenyl)methanol] |  |  |  |
| 7.5 ± 0.1 | 0.36 | 7.4 ± 0.0 |  |  | 0.00183 | 48300 |  |  |  | O=C(O)CCN1CCC(Oc2ccccc2Cc2ccccc2)CC1 [4a, 3-(4-(2-Benzylphenoxy)piperidin-1-yl)propanoic Acid Hydrochloride] |  |  |  |
| 7.6 ± 0.1 | 0.38 | 7.5 ± 0.0 |  |  | 0.00167 | 48300 |  |  |  | O=C(O)CCCN1CCC(Oc2ccccc2Cc2ccccc2)CC1 [4b, 4-(4-(2-Benzylphenoxy)piperidin-1-yl)butanoic Acid Hydrochloride] |  |  |  |
| 7.8 ± 0.1 | 0.85 | 7.9 ± 0.1 |  |  | 0.00075 | 53300 | > 10 |  |  | O=C(O)CCCCN1CCC(Oc2ccccc2Cc2ccccc2)CC1 [4c, 5-(4-(2-Benzylphenoxy)piperidin-1-yl)pentanoic Acid Hydrochloride] |  |  |  |
| 7.8 ± 0.0 | 0.61 | 7.7 ± 0.1 |  |  | 0.001 | 66700 |  |  |  | O=C(O)CCCCCN1CCC(Oc2ccccc2Cc2ccccc2)CC1 [4d, 6-(4-(2-Benzylphenoxy)piperidin-1-yl)hexanoic Acid Hydrochloride] |  |  |  |
| 7.7 ± 0.2 | 0.45 | 7.5 ± 0.0 |  |  | 0.00127 | 41700 |  |  |  | O=C(O)CCCCCCN1CCC(Oc2ccccc2Cc2ccccc2)CC1 [4e, 7-(4-(2-Benzylphenoxy)piperidin-1-yl)heptanoic Acid Hydrochloride] |  |  |  |
| 7.6 ± 0.1 | 0.50 | 7.5 ± 0.0 |  |  | 0.00115 | 39500 |  |  |  | O=C(O)CCCCCCCN1CCC(Oc2ccccc2Cc2ccccc2)CC1 [4f, 8-(4-(2-Benzylphenoxy)piperidin-1-yl)octanoic Acid Hydrochloride] |  |  |  |
|  |  |  |  |  |  |  |  |  | 7 | CN(C)CC/C=C1/c2ccccc2COc2ccc(CC(=O)O)cc21 [Olopatadine, olopatadine, reference compound] |  |  |  |
| 8.1 ± 0.1 | 1.66 | 8.2 ± 0.02 |  |  | 0.00035 | 61700 |  |  |  | c1ccc(Cc2ccccc2OC2CCN(CCCCc3nnn[nH]3)CC2)cc1 [compound 27, 1-(4-(1H-Tetrazol-5-yl)butyl)-4-(2-benzylphenoxy)piperidine] |  |  |  |

| Compound | pKi (human H1R [1]) | KE (kinetic efficiency = RT/N heavy atoms) (human H1R [2]) | pKD,calc (human H1R [2]; mean and SEM, N ≥ 3) | koff (human H1R [2]; [3]) [s⁻¹] | kon (human H1R [2]; [3]) | koff (human H1R [2]; [4]) [s⁻¹] | kon (human H1R [2]; read-out: kon (converted)) [M⁻¹ s⁻¹] | increase in RT relative to 1 (human H1R [2]; [5]) [fold] | lower binding affinity relative to 1 (human H1R [1]; compared with 1) [fold] | increase in RT compared to first-generation analog (human H1R [2]) [fold] | increase in RT relative to 1 (human H1R [2]) [fold] | decrease of association rate constant (kon) relative to 1 (human H1R [2]; compared with 1) [fold] | koff (human H1R [2]; read-out: koff (converted)) [s⁻¹] |
| --- | --- | --- | --- | --- | --- | --- | --- | --- | --- | --- | --- | --- | --- |
| CN1CCC(Oc2cc(CO)ccc2Cc2ccccc2)CC1 [2d, (4-Benzyl-3-((1-methylpiperidin-4-yl)oxy)phenyl)methanol Hemifumarate] | 8.4 ± 0.1 | 0.17 | 8.6 ± 0.0 |  |  |  | 1.63e+06 |  |  |  | 2 | 2 | 0.00417 |
| COc1ccc(Cc2ccccc2)c(OC2CCN(C)CC2)c1 [2e, 4-(2-Benzyl-5-methoxyphenoxy)-1-methylpiperidine Fumarate] | 7.8 ± 0.1 | 0.09 | 8.1 ± 0.1 |  |  |  | 1e+06 |  |  |  |  |  | 0.00833 |
